Results published in paper PMC3216401 (Antiviral research, 2011).
Where two headings read alike, the source gives them in different places.

Key:
B/Florida/4/2006 [1] = tested on: B/Florida/4/2006
B/Malaysia/2506/2004 [2] = test: microbe, parasite or virus in culture; conditions: Influenza B virus, MDCK, read-out: IC50, Visual Assay
[3] = tested on: A/Brisbane/10/2007 (H3N2)
in vitro = conditions: dog
[4] = tested on: A/Brisbane/10/2007 (H3N2); test: microbe, parasite or virus in culture; conditions: Influenza A virus, H3N2, MDCK, read-out: IC50, Visual Assay
[5] = tested on: A/Brisbane/10/2007 (H3N2); test: microbe, parasite or virus in culture; assay type: cell-based; conditions: Influenza A virus, H3N2, MDCK, read-out: IC90, VYR Assay
[6] = tested on: influenza A/CA/07/2009 (H1N1)
[7] = tested on: A/Vietnam/1203/04H (A/Vietnam/1203/04 × Ann Arbor/6/60 hybrid)
[8] = tested on: influenza A/CA/07/2009 (H1N1); test: microbe, parasite or virus in culture; assay type: cell-based; conditions: H1N1, MDCK, read-out: IC90, VYR Assay
[9] = tested on: influenza A/CA/07/2009 (H1N1); test: microbe, parasite or virus in culture; conditions: H1N1, MDCK, read-out: IC50, Neutral Red Uptake Assay
B/Florida/4/2006 [10] = test: microbe, parasite or virus in culture; assay type: cell-based; conditions: Influenza B virus, MDCK, read-out: IC90, VYR Assay
[11] = tested on: A/Hong Kong/213/2003H (A/Hong Kong/213/2003 × Ann Arbor/6/60 hybrid); test: microbe, parasite or virus in culture; conditions: Influenza A virus, H1N1|H5N1, MDCK, read-out: IC50, Visual Assay
A/Gull/PA/4175/83 (H5N1) [12] = test: microbe, parasite or virus in culture; conditions: Influenza A virus, H5N1, MDCK, read-out: IC50, Neutral Red Uptake Assay
A/Duck/MN/1525/81 (H5N1) [13] = tested on: A/Duck/MN/1525/81 (H5N1)
B/Florida/4/2006 [14] = test: microbe, parasite or virus in culture; conditions: Influenza B virus, MDCK, read-out: IC50, Visual Assay
[15] = tested on: A/Vietnam/1203/04H (A/Vietnam/1203/04 × Ann Arbor/6/60 hybrid); test: microbe, parasite or virus in culture; conditions: Influenza A virus, H1N1|H5N1, MDCK, read-out: IC50, Neutral Red Uptake Assay
[16] = tested on: Influenza A/Sydney/05/97 (H3N2); test: microbe, parasite or virus in culture; conditions: H3N2, MDCK, read-out: IC50, Neutral Red Uptake Assay
A/Duck/MN/1525/81 (H5N1) [17] = test: microbe, parasite or virus in culture; conditions: Influenza A virus, H5N1, MDCK, read-out: IC50, Neutral Red Uptake Assay
[18] = tested on: Influenza A/Sydney/05/97 (H3N2); test: microbe, parasite or virus in culture; assay type: cell-based; conditions: H3N2, MDCK, read-out: IC90, VYR Assay
A/Gull/PA/4175/83 (H5N1) [19] = tested on: A/Gull/PA/4175/83 (H5N1)
A/Duck/MN/1525/81 (H5N1) [20] = tested on: A/Duck/MN/1525/81 (H5N1); remark: listed apart in the source
influenza viruses = test: microbe, parasite or virus in culture; assay type: cell-based, influenza A and B viruses; conditions: Influenza A virus
[21] = tested on: A/Brisbane/10/2007 (H3N2); test: microbe, parasite or virus in culture; conditions: Influenza A virus, H3N2, MDCK, read-out: IC50, Neutral Red Uptake Assay
[22] = tested on: A/Hong Kong/213/2003H (A/Hong Kong/213/2003 × Ann Arbor/6/60 hybrid); test: microbe, parasite or virus in culture; conditions: Influenza A virus, H1N1|H5N1, MDCK, read-out: IC50, Neutral Red Uptake Assay
A/Duck/MN/1525/81 (H5N1) [23] = test: microbe, parasite or virus in culture; conditions: Influenza A virus, H5N1, MDCK, read-out: IC50, Visual Assay
[24] = tested on: A/Brisbane/10/2007 (H3N2); remark: listed apart in the source
[25] = tested on: A/Vietnam/1203/04H (A/Vietnam/1203/04 × Ann Arbor/6/60 hybrid); remark: listed apart in the source
A/Gull/PA/4175/83 (H5N1) [26] = tested on: A/Gull/PA/4175/83 (H5N1); remark: listed apart in the source
B/Malaysia/2506/2004 [27] = test: microbe, parasite or virus in culture; conditions: Influenza B virus, MDCK, read-out: IC50, Neutral Red Uptake Assay
[28] = tested on: influenza A/CA/07/2009 (H1N1); remark: listed apart in the source
B/Malaysia/2506/2004 [29] = test: microbe, parasite or virus in culture; assay type: cell-based; conditions: Influenza B virus, MDCK, read-out: IC90, VYR Assay
B/Malaysia/2506/2004 [30] = tested on: B/Malaysia/2506/2004
B/Florida/4/2006 [31] = test: microbe, parasite or virus in culture; conditions: Influenza B virus, MDCK, read-out: IC50, Neutral Red Uptake Assay
[32] = tested on: influenza A/CA/07/2009 (H1N1); test: microbe, parasite or virus in culture; conditions: H1N1, MDCK, read-out: IC50, Visual Assay
[33] = tested on: A/Vietnam/1203/04H (A/Vietnam/1203/04 × Ann Arbor/6/60 hybrid); test: microbe, parasite or virus in culture; assay type: cell-based; conditions: Influenza A virus, MDCK, read-out: IC90, VYR Assay
[34] = MDCK, read-out: IC90 values, range over viruses of Table 3

Structure (SMILES)	SI (CC50/IC50), Neutral Red Uptake Assay (B/Florida/4/2006 [1])	IC50 (B/Malaysia/2506/2004 [2]) [µM]	SI (CC50/IC50), Visual Assay [3]	IC50 [4] [µM]	IC90 [5] [µM]	SI (CC50/IC50), Visual Assay [6]	SI (CC50/IC50), Visual Assay [7]	IC90 [8] [µM]	IC50 [9] [µM]	IC90 (B/Florida/4/2006 [10]) [µM]	IC50 [11] [µM]	IC50 (A/Gull/PA/4175/83 (H5N1) [12]) [µM]	SI (CC50/IC50), Visual Assay (A/Duck/MN/1525/81 (H5N1) [13])	IC50 (B/Florida/4/2006 [14]) [µM]	IC50 [15] [µM]	IC50 [16] [µM]	IC50 (A/Duck/MN/1525/81 (H5N1) [17]) [µM]	IC90 [18] [µM]	SI (CC50/IC50), Visual Assay (A/Gull/PA/4175/83 (H5N1) [19])	SI (CC50/IC50), Neutral Red Uptake Assay (A/Duck/MN/1525/81 (H5N1) [20])	also measured
Nc1ccn([C@@H]2O[C@H](CO)[C@@H](O)C2(F)F)c(=O)n1 [2’-deoxy-2’, 2’-difluorocytidine, reference compound]	>440	< 0.032	43	0.13	0.14	11.7	>1000	0.13	0.16	1.7	< 0.032	0.27	>1700	< 0.32	< 0.32	1.2	< 0.32	1.6	>480	>880	CC50 (in vitro; CC50 values, range, visual assay): 2.1 to 530 µM; IC90 (influenza viruses; [34]): 0.03 to 2.1 µM; IC50 [21]: 0.16 µM; IC50 [22]: 0.065 µM; IC50 (A/Duck/MN/1525/81 (H5N1) [23]): < 0.32 µM; SI (CC50/IC50), Neutral Red Uptake Assay [24]: 8.1; SI (CC50/IC50), Neutral Red Uptake Assay [25]: >500; SI (CC50/IC50), Neutral Red Uptake Assay (A/Gull/PA/4175/83 (H5N1) [26]): 370; IC50 (B/Malaysia/2506/2004 [27]): 0.068 µM; SI (CC50/IC50), Neutral Red Uptake Assay [28]: 6.9; IC90 (B/Malaysia/2506/2004 [29]): 0.11 µM; SI (CC50/IC50), Neutral Red Uptake Assay (B/Malaysia/2506/2004 [30]): >1500; IC50 (B/Florida/4/2006 [31]): < 0.32 µM; IC50 [32]: 0.18 µM; IC90 [33]: 0.32 µM
Nc1ccn([C@@H]2O[C@H](CO)[C@@H](O)[C@H]2F)c(=O)n1 [2’-deoxy-2’-fluorocytidine, 2'-deoxy-2'-fluorocytidine]	>71	1.9	>100	1	6.8	>31	>48	4.6	4.1	2.1	1.3	1.1	>400	1	3.4	2.5	0.21	6.7	>110	>480	CC50 (in vitro; CC50, Visual Assay): > 100 µM; IC90 (influenza viruses; H1N1|H3N2, MDCK, read-out: IC90 values, range for the H3N2 and H1N1 viruses tested): 4.6 to 6.8 µM; IC90 (influenza viruses; H1N1|H5N1, MDCK, read-out: IC90 values, range for the hybrid H1N1 viruses expressing the H5N1 HA and NA proteins): 2.9 to 5.1 µM; IC90 (influenza viruses; [34]): 1.2 to 7.3 µM; IC50 [21]: 14 µM; IC50 [22]: 7.2 µM; IC50 (A/Duck/MN/1525/81 (H5N1) [23]): 0.25 µM; SI (CC50/IC50), Neutral Red Uptake Assay [24]: >7.1; SI (CC50/IC50), Neutral Red Uptake Assay [25]: >29; SI (CC50/IC50), Neutral Red Uptake Assay (A/Gull/PA/4175/83 (H5N1) [26]): >91; IC50 (B/Malaysia/2506/2004 [27]): 4.1 µM; SI (CC50/IC50), Neutral Red Uptake Assay [28]: >24; IC90 (B/Malaysia/2506/2004 [29]): 7.3 µM; SI (CC50/IC50), Neutral Red Uptake Assay (B/Malaysia/2506/2004 [30]): >24; IC50 (B/Florida/4/2006 [31]): 1.4 µM; IC50 [32]: 3.2 µM; IC90 [33]: 2.9 µM
